According to the supplement of paper PMC10307832:

Columns and labels:
Assay in all cases: relative viability (nuclei count vs DMSO), 5 days (fraction); higher = more cells survive
[1] = system: HOP-62
Method in brief: (§1)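 Lung cancer cell lines in 1536-well plates got either a single drug or a fixed anchor-drug dose together with five library-drug doses (not always all listed) in √10 steps, by pin tool, on the day after seeding. Nuclei were counted after 5 days, and relative viability is the treated-to-vehicle ratio of nuclei counts. Values are medians of duplicate plates.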

[2] = system: NCI-H2087
Method in brief: as §1

[3] = system: COR-L 105
Method in brief: as §1

[4] = system: A-427
Method in brief: as §1

[5] = system: CAL-12T
Method in brief: as §1

[6] = system: NCI-H1651
Method in brief: as §1

[7] = system: NCI-H596
Method in brief: as §1

[8] = system: NCI-H1975
Method in brief: as §1

[9] = system: NCI-H1563
Method in brief: as §1

[10] = system: NCI-H650
Method in brief: as §1

[11] = system: NCI-H647
Method in brief: as §1

[12] = system: NCI-H2342; conditions: first compound 0.2 µM
Method in brief: as §1

Work on `COCC1(CO)C(=O)C2CCN1CC2` (centres undefined) [PRIMA-1MET] + Cc1nc(Nc2ncc(C(=O)Nc3c(C)cccc3Cl)s2)cc(N2CCN(CCO)CC2)n1 [Dasatinib] (partner 0.075 µM) yielded a relative viability ([1]; first compound 0.2 µM) of 0.637, a relative viability ([1]; first compound 0.6325 µM) of 0.7 and a relative viability ([1]; first compound 2 µM) of 0.628. For the same molecule, the relative viability ([1]; first compound 6.325 µM) was 0.658, the relative viability ([1]; first compound 20 µM) was 0.582 and the relative viability ([2]; first compound 0.2 µM) was 0.471. It also gave a relative viability ([2]; first compound 0.6325 µM) of 0.727, a relative viability ([2]; first compound 2 µM) of 0.626 and a relative viability ([2]; first compound 6.325 µM) of 0.876. The relative viability ([2]; first compound 20 µM) was 0.289, the relative viability ([3]; first compound 0.2 µM) was 0.346 and the relative viability ([3]; first compound 0.6325 µM) was 0.404. For the same molecule, the relative viability ([3]; first compound 2 µM) was 0.292, the relative viability ([3]; first compound 6.325 µM) was 0.161 and the relative viability ([3]; first compound 20 µM) was 0.091. For the same molecule, the relative viability ([4]; first compound 0.2 µM) was 0.547, the relative viability ([4]; first compound 0.6325 µM) was 0.577 and the relative viability ([4]; first compound 2 µM) was 0.721. For the same molecule, the relative viability ([4]; first compound 6.325 µM) was 0.602, the relative viability ([4]; first compound 20 µM) was 0.15 and the relative viability ([5]; first compound 0.2 µM) was 0.34. For the same molecule, the relative viability ([5]; first compound 0.6325 µM) was 0.341, the relative viability ([5]; first compound 2 µM) was 0.456 and the relative viability ([5]; first compound 6.325 µM) was 0.364. The relative viability ([5]; first compound 20 µM) was 0.0829, the relative viability ([6]; first compound 0.2 µM) was 0.455 and the relative viability ([6]; first compound 0.6325 µM) was 0.468. For the same molecule, the relative viability ([6]; first compound 2 µM) was 0.423, the relative viability ([6]; first compound 6.325 µM) was 0.415 and the relative viability ([6]; first compound 20 µM) was 0.432. It also gave a relative viability ([7]; first compound 0.2 µM) of 0.701, a relative viability ([7]; first compound 0.6325 µM) of 0.563 and a relative viability ([7]; first compound 2 µM) of 0.597. The relative viability ([7]; first compound 6.325 µM) was 0.79, the relative viability ([7]; first compound 20 µM) was 0.147 and the relative viability ([8]; first compound 0.2 µM) was 0.359. It also gave a relative viability ([8]; first compound 0.6325 µM) of 0.349, a relative viability ([8]; first compound 2 µM) of 0.366 and a relative viability ([8]; first compound 6.325 µM) of 0.375. The relative viability ([8]; first compound 20 µM) was 0.19, the relative viability ([9]; first compound 0.2 µM) was 0.502 and the relative viability ([9]; first compound 0.6325 µM) was 0.426. The relative viability ([9]; first compound 6.325 µM) was 0.548, the relative viability ([9]; first compound 20 µM) was 0.422 and the relative viability ([10]; first compound 0.2 µM) was 0.565. For the same molecule, the relative viability ([10]; first compound 2 µM) was 0.469, the relative viability ([10]; first compound 6.325 µM) was 0.472 and the relative viability ([10]; first compound 20 µM) was 0.454. It also gave a relative viability ([11]; first compound 0.2 µM) of 0.165, a relative viability ([11]; first compound 0.6325 µM) of 0.16 and a relative viability ([11]; first compound 2 µM) of 0.156. For the same molecule, the relative viability ([11]; first compound 6.325 µM) was 0.173, the relative viability ([11]; first compound 20 µM) was 0.0339 and the relative viability [12] was 0.327.
